Patent US9475842B2, “Hexadepsipeptide analogues as anticancer compounds” (PIRAMAL ENTERPRISES LIMITED, priority 2012, dated 2016)
Read-outs that look alike come from different tables or passages of the source.

Key:
[1] = tested on: HCT 116 (Colorectal Cancer); assay: Monolayer assay (CCK-8 cytotoxicity); type: cell-based, human; conditions: HCT116, Table 6, read-out: IC50 (μM) in different cancer cell lines: HCT116
Procedure: (§1) The assays were designed as in the reference, BMC Cancer, 2010, 10, 610, 1-11; the disclosure of which is incorporated by reference for the teaching of the assay.
(§2) Human tumour cell lines: Panc-1 (Pancreatic Cancer), HCT 116 (Colorectal Cancer), ACHN (Renal Cell Carcinoma), Calu-1 (Lung Carcinoma), MiaPaca2 (Pancreatic Cancer), FADU (Head and Neck Cancer), PC3 (prostate Cancer), G361 (Melanoma), MDA-MB435S (Melanoma), HeLa (Cervical Cancer) were grown in Minimal Essential Media with Eagle's Basal Salts (MEM-EBS) obtained from AMIMED (BioConcept-Switzerland). Tumour cell lines: MDA-MB231 (Breast Cancer), JURKAT (T cell leukaemia), H460 (Small Cell Lung Cancer) were cultured in RPMI 1640 (AMIMED, BioConcept, Switzerland) medium. All tumour cell lines were supplemented with 10% Foetal Bovine Serum (FBS) (GIBCO), 1% Penicillin/Streptomycin (Sigma) and 1% Anti-Anti (GIBCO) and grown in T-175 tissue culture flasks (Nunc). MCF-10A, a non-tumourigenic cell line, was cultured in Mammary Epithelial Basal Medium (MEBM) with all standard additions (Lonza, Catalog. No. CC-3150). All cells were grown in 5% CO2 incubator at 37° C. Cells were passaged at 80-90% confluence. Adherent cells were trypsinised using Trypsin-EDTA (Sigma) and maintained. All cell lines were purchased from ATCC (Rockville, Md., USA).
(§3) Compound of Formula (1a) [described in example 7] was dissolved in DMSO to give a required stock solution of 20 mM. Eight different concentrations of the compound of Formula (1a) were prepared by serial dilution of stock solution finally resulting in a (compared to the test concentration) 200-fold higher concentration. Compound of Formula (1a) was tested at the concentration of 0.0001 μM, 0.001 μM, 0.01 μM, 0.03 μM, 0.1 μM, 0.3 μM, 1 μM and 3 μM respectively. Each concentration was evaluated in triplicate.
(§4) Method for determination of IC50 of the compound of Formula (1a): • a) Different cancer/normal cells were seeded at a density of 3000 cells/200 μL well, in a tissue culture grade 96 well plate and allowed them to recover for 24 hrs in a humidified 5±0.2% CO2 incubator at 37±0.5° C. • b) After 24 hrs, 1 μL of 200× (200 times higher than required concentration is denoted as 200×) compound of Formula (1a), dissolved in DMSO, was added to the above tissue culture plate seeded with cancer/normal cells. The final concentration of DMSO was 0.5% in wells. DMSO was used as a vehicle control. • c) After 24 hrs the plate was removed from CO2 incubator and 5 μL of CCK-8 (Dojindo Molecular Technologies, Inc. USA, catalog, no. CK04-20) per well was added. • d) The plate was then placed at 37° C. for 2 hrs. • e) The absorbance was recorded at 450 nm. • f) The percent cytotoxicity was calculated using the following formula
(§5) The IC50 value was estimated by visual inspection of the concentration-effect curve. For calculation of mean IC50 values over the fourteen cell lines as tested, the geometric mean was selected.
(§6) The assays were designed as described above in example 16.
(§7) The IC50 value was estimated by visual inspection of the concentration-effect curve. For calculation of mean IC50 values over the six cell lines (PC3, MDA MB, HCT116, MCF7, MIAPaCa2, MCF10A) as tested, the geometric mean was selected.

[2] = tested on: MDA-MB231 (Breast Cancer); assay: Monolayer assay (CCK-8 cytotoxicity); type: cell-based, human; conditions: MDA MB-231, Table 6, read-out: IC50 (μM) in different cancer cell lines: MDA MB-231
Procedure: as §1, §2, §3, §4, §5, §6, §7

[3] = tested on: PC3 (prostate Cancer); assay: Monolayer assay (CCK-8 cytotoxicity); type: cell-based, human; conditions: PC3, Table 6, read-out: IC50 (μM) in different cancer cell lines: PC3
Procedure: as §1, §2, §3, §4, §5, §6, §7

[4] = tested on: MCF-10A, a non-tumourigenic cell line; assay: Monolayer assay (CCK-8 cytotoxicity), normal cells; type: cell-based; conditions: Table 6
Procedure: as §1, §2, §3, §4, §5, §6, §7

[5] = tested on: MCF7; assay: Monolayer assay (CCK-8 cytotoxicity); type: cell-based; conditions: Table 6, read-out: IC50 (μM) in different cancer cell lines: MCF7
Procedure: as §1, §4, §6, §7

[6] = tested on: different cancer cells; assay: Monolayer assay, range over the cancer cell lines tested; type: cell-based; conditions: Homo sapiens; range over the cancer cell lines of Table 6
Procedure: as §1, §2, §3, §4, §5, §6, §7

[7] = Solubility (physical properties); type: physicochemical
[8] = MCF10A normal cells, read-out: IC50 (μM) in different cancer cell lines: MCF10A
[9] = read-out: IC50 (μM) in different cancer cell lines: MCF10A, MCF10A normal cells
[10] = Homo sapiens, MCF-10A, read-out: IC50 (μM) in different cancer cell lines: MCF10A, MCF10A normal cells

SMILES | IC50 [1] [µM] | IC50 [2] [µM] | IC50 [3] [µM] | IC50 [4, 8] [µM] | IC50 [5] [µM] | IC50 ([1]; Homo sapiens, HCT-116) [µM] | IC50 ([2]; Homo sapiens) [µM] | IC50 ([3]; Homo sapiens) [µM] | IC50 [4, 9] [µM] | IC50 ([5]; Homo sapiens) [µM] | IC50 [6] [nM] | IC50 [4, 10] [µM] | Solubility in organic solvents ([7]; chloroform, ethyl acetate and methanol) | Solubility in water ([7]; water)
CON1C(=O)C2CCCNN2C(=O)C(NC(=O)C(C)(O)C2(O)CCC(CC(C)C)C(C)O2)C(C(C)C)OC(=O)C(C)N(O)C(=O)C2CCCNN2C(=O)CNC(=O)C1C (stereo not shown) [Compound 1, 2-hydroxy-N-(18-hydroxy-22-isopropyl-6-methoxy-7,19-dimethyl-5,8,11,17,20,24-hexaoxotetracosahydrodipyridazino[6,1-f:6′,1′-o][1,4,7,10,13,16]oxapentaazacyclononadecin-23-yl)-2-(2-hydroxy-5-isobutyl-6-methyltetrahydro-2H-pyran-2-yl) propanamide] | 0.287 | 0.293 | 0.502 | 0.247 | 0.355 | – | – | – | – | – | – | – | – | –
CON1C(=O)C2CCCNN2C(=O)C(NC(=O)C(C)(O)C2(O)CCC(CC(C)C)C(C)O2)C(C(C)C)OC(=O)C(C)N(OC)C(=O)C2CCCNN2C(=O)CNC(=O)C1C (stereo not shown) [Compound 2, 2-hydroxy-2-(2-hydroxy-5-isobutyl-6-methyltetrahydro-2H-pyran-2-yl)-N-(22-isopropyl-6,18-dimethoxy-7,19-dimethyl-5,8,11,17,20,24-hexaoxotetracosahydrodipyridazino[6,1-f:6′,1′-o][1,4,7,10,13,16]oxapentaazacyclononadecin-23-yl)propanamide] | – | – | – | – | – | 0.635 | 0.8 | 1.04 | 0.691 | 0.826 | 9 to 1040 | – | – | –
CC(C)CC1CCC(O)(C(C)(O)C(=O)NC2C(=O)N3NCCCC3C(=O)N(OC(=O)CCNC(=O)OCc3ccccc3)C(C)C(=O)NCC(=O)N3NCCCC3C(=O)N(O)C(C)C(=O)OC2C(C)C)OC1C (stereo not shown) [Compound 3, 18-hydroxy-23-(2-hydroxy-2-(2-hydroxy-5-isobutyl-6-methyltetrahydro-2H-pyran-2-yl)propanamido)-22-isopropyl-7,19-dimethyl-5,8,11,17,20,24-hexa oxoicosahydrodipyridazino[6,1-f:6′,1′-o][1,4,7,10,13,16]oxapentaazacyclononadecin-6(7H,13H,22H)-yl 3-(((benzyloxy)carbonyl)amino)propanoate] | – | – | – | – | – | 0.009 | 0.03 | 0.044 | 0.031 | 0.025 | 9 to 1040 | – | – | –
CC(C)CC1CCC(O)(C(C)(O)C(=O)NC2C(=O)N3NCCCC3C(=O)N(OC(=O)CCN)C(C)C(=O)NCC(=O)N3NCCCC3C(=O)N(O)C(C)C(=O)OC2C(C)C)OC1C (stereo not shown) [Compound 4, 18-hydroxy-23-(2-hydroxy-2-(2-hydroxy-5-isobutyl-6-methyltetra hydro-2H-pyran-2-yl)propanamido)-22-isopropyl-7,19-dimethyl-5,8,11,17,20,24-hexaoxo icosahydrodipyridazino[6,1-f:6′,1′-o][1,4,7,10,13,16]oxapentaazacyclononadecin-6(7H,13H,22H)-yl 3-aminopropanoate] | 0.17 | 0.2 | – | < 0.3 | 0.03 | – | – | – | – | – | – | – | – | –
CC(C)CC1CCC(O)(C(C)(O)C(=O)NC2C(=O)N3N=CCCC3C(=O)N(O)C(C)C(=O)NCC(=O)N3N=CCCC3C(=O)N(O)C(C)C(=O)OC2C(C)C)OC1C (stereo not shown) [Compound 5, N-(6,18-dihydroxy-22-isopropyl-7,19-dimethyl-5,8,11,17,20,24-hexaoxo-3,4,4a,5,6,7,8,9,10,11,15,16,16a,17,18,19,20,22,23,24-icosahydrodipyridazino[6,1-f:6′,1′-o][1,4,7,10,13,16]oxapentaazacyclononadecin-23-yl)-2-hydroxy-2-(2-hydroxy-5-isobutyl-6-methyltetrahydro-2H-pyran-2-yl)propanamide] | – | – | – | – | – | < 0.01 | 0.012 | – | < 0.01 | 0.018 | 9 to 1040 | 0.01 to 0.83 | – | –
CC(C)CC1CCC(O)(C(C)(O)C(=O)NC2C(=O)N3NCCCC3C(=O)NC(C)C(=O)NCC(=O)N3NCCCC3C(=O)NC(C)C(=O)OC2C(C)C)OC1C (stereo not shown) [Compound 6, 2-hydroxy-2-(2-hydroxy-5-isobutyl-6-methyltetrahydro-2H-pyran-2-yl)-N-(22-isopropyl-7,19-dimethyl-5,8,11,17,20,24-hexaoxotetracosahydrodipyridazino[6,1-f:6′,1′-o][1,4,7,10,13,16]oxapentaazacyclononadecin-23-yl)propanamide] | – | – | – | – | – | 0.284 | 0.343 | 0.998 | 0.819 | 0.977 | 9 to 1040 | – | – | –
CC(=O)ON1C(=O)C2CCCNN2C(=O)C(NC(=O)C(C)(O)C2(O)CCC(CC(C)C)C(C)O2)C(C(C)C)OC(=O)C(C)N(O)C(=O)C2CCCNN2C(=O)CNC(=O)C1C (stereo not shown) [Compound 7, 18-hydroxy-23-(2-hydroxy-2-(2-hydroxy-5-isobutyl-6-methyltetra hydro-2H-pyran-2-yl)propanamido)-22-isopropyl-7,19-dimethyl-5,8,11,17,20,24-hexaoxo icosahydrodipyridazino[6,1-f:6′,1′-o[]1,4,7,10,13,16]oxapentaazacyclononadecin-6(7H,13H,22H)-yl acetate] | 0.257 | 0.32 | 0.36 | 0.83 | 0.843 | – | – | – | – | – | – | – | – | –
CC(C)CC1CCC(O)(C(C)(O)C(=O)NC2C(=O)N3N=CCCC3C(=O)N(O)C(C)C(=O)NCC(=O)N3NCCCC3C(=O)N(O)C(C)C(=O)OC2C(C)C)OC1C (stereo not shown) [Formula (1b), N-(6,18-dihydroxy-22-isopropyl-7,19-dimethyl-5,8,11,17,20,24-hexaoxo-3,4,4a,5,6,7,8,9, 10,11,13,14,15, 16,16a, 17,18,19,20,22,23,24-docosahydrodipyridazino[6,1-f:6′,1′-o][1,4,7,10, 13,16]oxapentaazacyclononadecin-23-yl)-2-hydroxy-2-(2-hydroxy-5-isobutyl-6-methyltetra hydro-2H-pyran-2-yl)propanamide] | – | – | – | – | – | 0.032 | 0.018 | 0.035 | – | 0.071 | 18 to 71 | 0.03 | Soluble in chloroform, ethyl acetate and methanol and | insoluble in water
